Experimental data as given in patent US9072732B2 (priority 2010, dated 2015).

What was measured:
Hep G2 cells = details: niacin 0.5 mM 24 h, then ethanol 48 h in presence or absence of niacin
Description: Cellular fat accumulation was quantitated by nile red O staining and by measuring fluorescence intensity.

[1] = test system: high-fat-induced NAFLD in rats; test: High-fat diet-induced NAFLD model in rats; details: 4 weeks

O=C(O)c1cccnc1 [niacin, nicotinic acid]
alcohol-induced fat accumulation (Hep G2 cells): significantly inhibited | serum cholesterol levels ([1]; niacin 0.5% and 1% in high-fat diet, compared to rats fed high-fat diet): significantly decreased | body weight of rats ([1]; niacin 0.5% or 1% in high-fat diet, compared to high-fat fed rats): no effect | serum triglyceride levels ([1]; niacin in high-fat diet, compared to rats fed high-fat diet): significantly decreased
